The text below walks through data of PubChem BioAssay (NCI).

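Assay format: 96-well plates, 48-hour exposure. GI50: concentration for 50% inhibition of growth. TGI denotes the concentration required for complete inhibition of growth.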

This test has as its system RXF-631 renal. Briefly: DTP human tumour cell line panel, 48 h.
As to `CCc1ccc(Cc2ccc(CC)c(NC(=O)C(=O)Cc3nc4ccccc4nc3C)c2CC)c(CC)c1NC(=O)C(=O)Cc1nc2ccccc2nc1C`, the TGI (as a rule, the concentration giving total growth inhibition) is above 100 µM.

`O=C(CC(O)(c1ccccc1)c1ccc(Cl)cc1)NC(=O)c1ccccc1O` (centres undefined) came in with a TGI of 74.8 µM.

Regarding `[N-]=[N+]=Nc1ccc(S(=O)(=O)Oc2cc(OS(=O)(=O)c3ccc(N=[N+]=[N-])cc3)cc(OS(=O)(=O)c3ccc(N=[N+]=[N-])cc3)c2)cc1`, the TGI was above 100 µM.

For the compound `COc1ccc(NC(=O)CC/C(CC(=O)c2ccco2)=N/Nc2ccc([N+](=O)[O-])cc2[N+](=O)[O-])cc1`, the TGI is above 100 µM.

Compound `COc1ccc(C(=O)O/N=C2\CCCC\C2=C/c2ccccc2)cc1` registered a TGI above 100 µM.

Take `CCCCN(CCCC)C(=Nc1ccccc1)N(CCCC)CCCC`: the TGI is 26.2 µM.

In the case of `CN1CCC(O)C(CNC23CC4CC(CC(C4)C2)C3)C1` (centres undefined), the TGI was above 100 µM.

Take `CCOC(=O)C(C(=O)c1ccccc1-c1ccccc1C(=O)O)=P(c1ccccc1)(c1ccccc1)c1ccccc1`: the TGI is above 100 µM.

In the case of `c1ccc([CH2][Sn]([CH2]c2ccccc2)([S]c2cccc3cccnc23)[S]c2cccc3cccnc23)cc1`, the GI50 (in general, the concentration that inhibits growth by half) is 0.225 µM and the total growth inhibition concentration (TGI) is 0.552 µM.

For `CC(=O)OCC1OC(n2cc(F)c(=O)[nH]c2=O)C(OC(C)=O)C1OC(C)=O` (centres undefined), the concentration for total growth inhibition (TGI) was above 100 µM.

In the case of `CC(C)NC(=O)OCc1nnn2c1C(OC(=O)NC(C)C)CC2` (centres undefined), the TGI was above 100 µM.

Consider `N#Cc1c([N+](=O)[O-])cc(C(F)(F)F)cc1[N+](=O)[O-]`, for which the TGI amounted to 27.3 µM.

On to `O=C(Nc1nc2ncn(CCOC(=O)c3ccccc3)c2c(=O)[nH]1)c1ccccc1`, for which the TGI is above 100 µM.
